From patent publication US9796733B2, “Imidazo-pyrazine derivatives useful as soluble guanylate cyclase activators” (Merck Sharp & Dohme Corp., priority 2014, dated 2017) come the findings set out here.

Structures are written as SMILES.

For the assay, the target named is T1, sGC α1/β1 heterodimer (Homo sapiens, UniProt Q02108+Q02153).
T1 construct: expressed in transfected cells; host or cells: CHO-K1 (clone #7, CHO-K1/sGC)
T1 sequence (Q02108 1-690): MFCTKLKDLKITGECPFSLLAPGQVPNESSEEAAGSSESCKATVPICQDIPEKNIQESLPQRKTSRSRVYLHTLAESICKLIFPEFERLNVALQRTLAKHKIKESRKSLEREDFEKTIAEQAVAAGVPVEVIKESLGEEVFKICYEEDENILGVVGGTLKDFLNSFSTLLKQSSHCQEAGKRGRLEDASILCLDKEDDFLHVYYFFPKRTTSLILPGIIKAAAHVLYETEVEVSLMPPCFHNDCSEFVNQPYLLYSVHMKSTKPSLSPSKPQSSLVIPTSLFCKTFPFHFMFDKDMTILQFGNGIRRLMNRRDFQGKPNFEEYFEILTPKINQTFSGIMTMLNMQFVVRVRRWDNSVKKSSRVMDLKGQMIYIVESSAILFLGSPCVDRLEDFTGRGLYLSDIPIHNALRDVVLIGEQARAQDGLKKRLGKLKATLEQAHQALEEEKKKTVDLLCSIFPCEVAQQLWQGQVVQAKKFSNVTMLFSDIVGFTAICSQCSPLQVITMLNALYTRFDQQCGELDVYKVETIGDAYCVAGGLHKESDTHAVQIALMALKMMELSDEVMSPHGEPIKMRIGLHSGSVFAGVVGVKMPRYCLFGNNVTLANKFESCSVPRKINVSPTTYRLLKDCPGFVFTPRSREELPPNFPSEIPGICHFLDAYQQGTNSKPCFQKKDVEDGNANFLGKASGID
T1 sequence (Q02153 1-619): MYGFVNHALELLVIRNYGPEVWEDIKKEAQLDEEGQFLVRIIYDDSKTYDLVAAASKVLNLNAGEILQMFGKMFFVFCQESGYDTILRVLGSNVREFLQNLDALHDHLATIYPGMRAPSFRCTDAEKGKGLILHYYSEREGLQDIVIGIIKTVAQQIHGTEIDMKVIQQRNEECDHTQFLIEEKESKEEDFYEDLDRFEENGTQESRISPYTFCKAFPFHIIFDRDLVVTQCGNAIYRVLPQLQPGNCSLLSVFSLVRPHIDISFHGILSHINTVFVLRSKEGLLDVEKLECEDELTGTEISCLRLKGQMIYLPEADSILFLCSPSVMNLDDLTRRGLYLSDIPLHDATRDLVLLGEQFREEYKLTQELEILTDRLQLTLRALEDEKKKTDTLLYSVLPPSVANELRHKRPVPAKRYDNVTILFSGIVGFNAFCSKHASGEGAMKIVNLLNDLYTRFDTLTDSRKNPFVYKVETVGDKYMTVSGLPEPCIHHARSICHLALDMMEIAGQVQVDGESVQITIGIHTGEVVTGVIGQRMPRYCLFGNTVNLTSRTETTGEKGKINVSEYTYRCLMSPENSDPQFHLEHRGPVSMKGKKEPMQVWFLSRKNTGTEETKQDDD
Description: Cell-based sGC functional assay (CASA assay): cGMP generation in CHO-K1/sGC cells, HTRF detection. To be noted: for Emax: CHO-K1, percent activation relative to standard Compound A in CHO-K1/sGC cells, read-out: % Act.; for EC50: inflection point (IP) of cGMP generation in CHO-K1/sGC cells, 4P fit, activity expressed as percentage of Compound A. The source says: Biological Assay 1: Cell-Based sGC Functional Assay (CASA Assay)
sGC is a heme-containing enzyme that converts GTP to secondary messenger cGMP. Increases in cGMP levels affect several physiological processes including vasorelaxation through multiple downstream pathways. […] Heme-dependent activators (HDAs) preferentially activate sGC containing a ferrous heme group. To determine the effect of sGC activators on enzyme activity, the CASA assay was developed to monitor the generation of cGMP in a cell line that stably expresses the heterodimeric sGC protein.
A CHO-K1 cell line stably expressing the sGC α1/β1 heterodimer was generated using a standard transfection protocol. CHO-K1 cells were transfected with plasmids pIREShyghsGCal and pIRESneo-hsGCβ1 simultaneously using FUGENE reagent. Clones that stably express both subunits were selected with hygromycin and neomycin for 2 weeks. Clone #7 was chosen for the assay and was designated CHO-K1/sGC. CHO-K1/sGC cells were maintained in F-K12 medium containing 10% heat-inactivated Fetal Bovine Serum (FBS), 100 μg/mL penicillin/streptomycin, 0.5 mg/mL hygromycin and 0.25 mg/mL G418. The cells were then cryopreserved in LN2. On the day of the assay, cells thawed and resuspended in EBSS Assay Buffer (Sigma, E3024) supplemented with 5 mM MgCl2, 10 mM HEPES (4-(2-hydroxyethyl)piperazine-1-ethanesulfonic acid) and 0.05% BSA (bovine serum albumin) (EAB) and cell density was then adjusted to 4×10^5/mL with EAR IBMX (3-isobutyl-1-methylxanthin, 0.5 mM) was added to inhibit degradation of cGMP. Compounds were diluted from DMSO stock solutions and added to the assay at a final DMSO concentration of 2.5%. Cells were incubated with compounds in the presence and absence of 1 μM of Diethylenetriamine/nitric oxide adduct (DETA-NO; Sigma, 17018) for 1 hr at 37° C. At the end of the incubation period, the reaction was terminated and the cells were lysed with the detection reagents from Cisbio Kits. The level of intracellular cGMP was determined using an HTRF-based assay kit (CisBio, 62GM2PEC), which detects the displacement of a fluorescence labeled cGMP from its specific antibody. The cGMP produced by test compounds was directly compared to the maximum cGMP production (this value was set to equal 100% activation.) of the published sGC-HDA Compound A:
[drawing 597] (Example 1 in WO 2010/065275, published Jun. 10, 2010). The test compounds' activities were then expressed as a percentage of Compound A, the standard in every experiment. This percent activation was calculated either in the presence or absence of DETA-NO which was then plotted. IP and maximum fold induction was derived using ADA analysis software for 4P fit.
The compounds in the Examples of the instant invention had inflection points (IP) less than or equal to 10 μM and more particularly less than or equal to about 1 μM.

As for `COC(=O)c1cccc(C2(C)C(=O)Nc3nc(-c4cn5ccnc5c(CCC(F)(F)C(F)(F)F)n4)nc(N)c32)c1` (single isomer, unassigned) [Example 270B, Methyl 3-(4-amino-5-methyl-6-oxo-2-(8-(3,3,4,4,4-pentafluorobutyl)imidazo[1,2-a]pyrazin-6-yl)-6,7-dihydro-5H-pyrrolo[2,3-d]pyrimidin-5-yl)benzoate], the Emax amounted to 101% and the EC50 was 319 nM.
In the same order, the values of `CC1(c2ccc(Cl)cc2)C(=O)Nc2nc(-c3cn4ccnc4cn3)nc(N3CC(F)(F)C3)c21` (single isomer, unassigned) [Example 277A] are 106% and 469 nM.
Turning to `CC(C)c1nc(C2(C)C(=O)Nc3nc(-c4cn5ccnc5c(CCC(F)(F)C(F)(F)F)n4)nc(N)c32)no1` (single isomer, unassigned) [Example 321B, 4-amino-5-(5-isopropyl-1,2,4-oxadiazol-3-yl)-5-methyl-2-(8-(3,3,4,4,4-pentafluorobutyl)imidazo[1,2-a]pyrazin-6-yl)-5H-pyrrolo[2,3-d]pyrimidin-6(7H)-one], the Emax came out at 126% and the response was half-maximal at 237 nM (EC50).
In the same order, the values of `Cn1nnnc1C1(C2CC2)C(=O)Nc2nc(-c3cn4ccnc4c(CCC(F)(F)C(F)(F)F)n3)nc(N)c21` (single isomer, unassigned) [Example 325A, 4-amino-5-cyclopropyl-5-(1-methyl-1H-tetrazol-5-yl)-2-(8-(3,3,4,4,4-pentafluorobutyl)imidazo[1,2-a]pyrazin-6-yl]-5H-pyrrolo[2,3-d]pyrimidin-6(7H)-one] are 83% and 1210 nM.
In the same order, the values of `COc1ccc(C2(C3CC3)C(=O)Nc3nc(-c4cn5ccnc5c(CCC(F)(F)C(F)(F)F)n4)nc(N)c32)nc1` (single isomer, unassigned) [Example 337A, 4-amino-5-cyclopropyl-5-(5-methoxypyridin-2-yl)-2-(8-(3,3,4,4,4-pentafluorobutyl)imidazo[1,2-a]pyrazin-6-yl)-5H-pyrrolo[2,3-d]pyrimidin-6(7H)-one] are 189% and 486 nM.
`Cc1ncc(C2(C3CC3)C(=O)Nc3nc(-c4cn5ccnc5c(CCC(F)(F)C(F)(F)F)n4)nc(N)c32)cn1` (single isomer, unassigned) [Example 348B, 4-amino-5-cyclopropyl-5-(2-methylpyrimidin-5-yl)-2-(8-(3,3,4,4,4-pentafluorobutyl)imidazo[1,2-a]pyrazin-6-yl)-5H-pyrrolo[2,3-d]pyrimidin-6(7H)-one]: the Emax is 175% and the response was half-maximal at 1550 nM (EC50).
Take `Nc1nc(-c2cn3ccnc3c(CCC(F)(F)C(F)(F)F)n2)nc2c1C(c1ccc(Cl)cc1)(C1CCC1)C(=O)N2` (single isomer, unassigned) [Example 350B, 4-amino-5-(4-chlorophenyl)-5-cyclobutyl-2-(8-(3,3,4,4,4-pentafluorobutyl)imidazo[1,2-a]pyrazin-6-yl)-5H-pyrrolo[2,3-d]pyrimidin-6(7H)-one]: the Emax is 239% and the EC50 worked out at 105 nM.
Consider `Nc1nc(-c2cn3ccnc3c(CCC(F)(F)F)n2)nc2c1C(c1ccc(Cl)cc1)(C1CCC1)C(=O)N2` (single isomer, unassigned) [Example 351B, 4-amino-5-(4-chlorophenyl)-5-cyclobutyl-2-(8-(3,3,3-trifluoropropyl)imidazo[1,2-a]pyrazin-6-yl)-5H-pyrrolo[2,3-d]pyrimidin-6(7H)-one], for which the Emax was found to be 182% and the concentration giving a half-maximal response (EC50) was found to be 985 nM.
Consider `CCCCc1nc(-c2nc(N)c3c(n2)NC(=O)C3(c2cnc(C)cn2)C2CC2)cn2ccnc12` (single isomer, unassigned) [Example 352B, 4-amino-2-(8-butylimidazo[1,2-a]pyrazin-6-yl)-5-cyclopropyl-5-(5-methylpyrazin-2-yl)-5H-pyrrolo[2,3-d]pyrimidin-6(7H)-one], for which the Emax turned out to be 96% and a half-maximal effect (EC50) was put at 302 nM.
